Assay [1] concerns the target T1, calf thymus topoisomerase I (Bos taurus, UniProt F1MN93).
T1 sequence (F1MN93 1-767): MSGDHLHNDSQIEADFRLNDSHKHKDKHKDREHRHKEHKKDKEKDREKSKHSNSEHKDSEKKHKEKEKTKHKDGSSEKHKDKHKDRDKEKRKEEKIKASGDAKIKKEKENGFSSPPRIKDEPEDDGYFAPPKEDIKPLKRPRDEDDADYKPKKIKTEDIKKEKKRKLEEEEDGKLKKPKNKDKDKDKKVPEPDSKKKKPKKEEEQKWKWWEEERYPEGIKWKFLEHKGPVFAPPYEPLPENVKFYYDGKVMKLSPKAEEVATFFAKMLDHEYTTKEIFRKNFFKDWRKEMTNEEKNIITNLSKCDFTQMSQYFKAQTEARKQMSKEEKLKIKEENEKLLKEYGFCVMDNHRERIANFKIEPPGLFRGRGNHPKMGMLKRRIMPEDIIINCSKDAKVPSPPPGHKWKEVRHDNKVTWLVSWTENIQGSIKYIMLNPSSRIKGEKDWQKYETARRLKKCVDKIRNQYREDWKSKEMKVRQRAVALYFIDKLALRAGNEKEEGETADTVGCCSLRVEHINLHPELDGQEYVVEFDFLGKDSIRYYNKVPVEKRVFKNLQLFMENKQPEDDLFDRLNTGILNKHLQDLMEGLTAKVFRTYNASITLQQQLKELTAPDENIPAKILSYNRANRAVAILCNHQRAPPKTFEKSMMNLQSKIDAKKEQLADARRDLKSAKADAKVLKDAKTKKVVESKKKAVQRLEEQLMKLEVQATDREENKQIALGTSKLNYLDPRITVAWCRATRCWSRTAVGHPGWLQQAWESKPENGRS
The settings on record: for PERCENTAGE OF RELAXED DNA: relaxed DNA with respect to total DNA, pUC 19, 37° C. 15 min. Here is the method:
1. Inhibition test of the relaxation of supercoiled DNA induced by topoisomerase I.
Supercoiled plasmidic DNA (pUC 19, Pharmacia Biotech, Orsay, France, 300 ng) is incubated at 37° C. for 15 min in the presence of calf thymus topoisomerase I (Gibco-BRL, Paisley, United Kingdom, 1 unit) in 20 μl of reaction buffer (Tris-HCl pH 7.5:50 mM, KCl: 50 mM, DTT: 0.5 mM, MgCl2: 10 mM, EDTA: 0.1 mM, bovine serum albumin: 0.030 mg/ml) and of a potentiel inhibitor (prepared in a 50 mM extemporaneous solution in dimethylsulphoxide, then diluted with distilled water in order to obtain a final concentration of 500 μM, 200 μM, 100 μM or 10 μM, not exceeding 1% of dimethylsulphoxide). The reaction is stopped by the addition of 3 μl of a denaturing solution (proteinase K: 500 μg/ml, sodium dodecylsulphate: 1%, EDTA: 20 mM) followed by incubation at 37° C. for 30 min, then 2 μl of a loading buffer (bromophenol blue: 0.3%, sodium hydrogen phosphate: 10 mM, polysucrose Ficoll®-400: 16%) are added and the sample is placed on a 1.2% agarose gel (Sea-Kem-GTG, FMC Bioproducts/Tebu, Perray-en-Yvelines, France) containing 2 μg/ml of chloroquine. The electrophoretic migration is carried out at a voltage of 1V/cm for 20 hours, with recirculation of the electrophoresis buffer (Tris-HCl: 36 mM, sodium dihydrogen phosphate: 30 mM, EDTA: 1 mM). The gel is then stained under agitation with 2 μg/ml ethidium bromide, then photographed under ultraviolet light at 312 nm (CCD camera Vilber-Lourmat, Lyon, France). Densitometric analysis (BioProfil image analyzer Vilber-Lourmat, Lyon, France) allows the percentage of relaxed DNA with respect to total DNA to be expressed, at the chosen concentration of inhibitor.

A further assay relates to topoisomerase II. The note with it: for PERCENTAGE OF RELAXED DNA: relaxed DNA with respect to total DNA, pUC 19, 37° C. 15 min. Here is the method:
2. Inhibition test of the relaxation of supercoiled DNA induced by topoisomerase II.
Supercoiled plasmidic DNA (pUC 19, Pharmacia Biotech, Orsay, France, 300 ng) is incubated at 37° C. for 15 min in the presence of calf thymus […] (Gibco-BRL, Paisley, United Kingdom, 7 units) in 20 μl of reaction buffer (Tris-HCl pH 7.9: 10 mM, KCl: 50 mM, NaCl: 50 mM, MgCl2: 5 mM, ATP: 1 mM, EDTA: […], bovine serum albumin: 15 mg/ml) and of a potential inhibitor (prepared in a 50 mM extemporaneous solution in dimethylsulphoxide, then diluted with distilled water in order to obtain a final concentration of 500 μM, 200 μM, 100 μM or 10 μM, not exceeding 1% of dimethylsulphoxide). The reaction is stopped by the addition of 3 μl of a denaturing solution (proteinase K: 500 μg/ml, sodium dodecylsulphate: 1%, EDTA: 20 mM) followed by incubation at 37° C. for 30 min, then 2 μl of a loading buffer (bromophenol blue: 0.3%, sodium hydrogen phosphate: 10 mM, polysucrose Ficoll®-400: 16%) are added and the sample is placed on a 1.2% agarose gel (Sea-Kem-GTG, FMC Bioproducts/Tebu, Perray-en-Yvelines, France) containing 2 μg/ml of chloroquine. The electrophoretic migration is carried out at a voltage of 1V/cm for 20 hours, with recirculation of the electophoresis buffer (Tris-HCl: 36 mM, sodium dihydrogen phosphate: 30 mM, EDTA: 1 mM). The gel is then stained under agitation with 2 μg/ml ethidium bromide, then photographed under ultraviolet light at 312 nm (CCD camera Vilber-Lourmat, Lyon, France). Densitometric analysis (BioProfil image analyzer Vilber-Lourmat, Lyon, France) allows the percentage of relaxed DNA with respect to the total DNA to be expressed, at the chosen concentration of inhibitor.

Setting [2] is: at concentrations greater than 10 μM.

Where two headings read alike, the source gives them in different places.

The record followed here is patent US6632946B2, “Tetracyclic analogues of camptothecins, their preparation processes, their use as medicaments and the pharmaceutical compositions containing them” (Societe de Conseils de Recherches et d'Applications …, priority 1997, dated 2003).

`CC[C@@]1(O)C(=O)OCc2c1cc1n(c2=O)Cc2cc3ccccc3nc2-1` [Camptothecin]: the “PERCENTAGE OF RELAXED DNA” value in assay [1] (inhibitor concentration 10 μM) worked out at 95.5 ± 1.4%; in assay [1] (inhibitor concentration 100 μM) it was 64.2 ± 6.1%; in assay [1] (inhibitor concentration 200 μM) it was 60.6 ± 12.0%; in assay [1] (inhibitor concentration 500 μM), 55.6 ± 8.8%.

Regarding `COc1cc([C@@H]2c3cc4c(cc3[C@@H](O[C@@H]3O[C@@H]5CO[C@@H](C)O[C@H]5[C@H](O)[C@H]3O)[C@H]3COC(=O)[C@H]23)OCO4)cc(OC)c1O` [Etoposide, reference compound], the “PERCENTAGE OF RELAXED DNA” value in the assay on topoisomerase II (inhibitor concentration 10 μM) was 92.6 ± 2.5%; in the assay with topoisomerase II (inhibitor concentration 100 μM), 28.5 ± 2.2%; in the assay on topoisomerase II (inhibitor concentration 200 μM) it was 18.6 ± 1.4%; in the assay on topoisomerase II (inhibitor concentration 500 μM), 12.0 ± 0.8%.

As to `CCC(O)(CC(=O)O)c1cc2n(c(=O)c1)Cc1cc3ccccc3nc1-2` (stereo not drawn) [Example 6, 3-Hydroxy-3-(4-oxo-4,6-dihydroindolizino[1,2-b]quinoline-2-yl)pentanoic Acid], in assay [1] (setting [2]), the “inhibition of topoisomerase I compared with camptothecin” value is recorded as “better inhibitor of topoisomerase I than camptothecin”. In addition, the “PERCENTAGE OF RELAXED DNA” value is reported as 95.2 ± 2.8% in assay [1] (inhibitor concentration 10 μM); 28.5 ± 3.5% in assay [1] (inhibitor concentration 100 μM); 15.5 ± 3.6% in assay [1] (inhibitor concentration 200 μM); 10.3 ± 2.8% in assay [1] (inhibitor concentration 500 μM); 98.8 ± 0.4% with topoisomerase II (inhibitor concentration 10 μM); 9.9 ± 0.7% in the assay on topoisomerase II (inhibitor concentration 100 μM). In addition, the “PERCENTAGE OF RELAXED DNA” value in the assay with topoisomerase II (inhibitor concentration 200 μM) amounted to 11.5 ± 1.9%; with topoisomerase II (inhibitor concentration 500 μM), 6.5 ± 1.0%. Also, the “inhibition of topoisomerase II compared with etoposide” value in the assay with topoisomerase II (setting [2]) is given as “better inhibitor of topoisomerase II than etoposide”.
